Values of other authors, collected in patent US20060134230A1, “Weight loss composition and formulation” (priority 2004, published 2006).

Legend:
lipases = conditions: in vivo
[1] = system: oxidative phosphorylation
fatty acid synthase = fatty acid synthase (Homo sapiens, UniProt P49327)
3T3-L1 = 3T3-L1 preadipocyte
[2] = system: glucose transport at the brush border of the small intestine; conditions: in vivo

Sequence of fatty acid synthase (P49327 whole entry, species assumed): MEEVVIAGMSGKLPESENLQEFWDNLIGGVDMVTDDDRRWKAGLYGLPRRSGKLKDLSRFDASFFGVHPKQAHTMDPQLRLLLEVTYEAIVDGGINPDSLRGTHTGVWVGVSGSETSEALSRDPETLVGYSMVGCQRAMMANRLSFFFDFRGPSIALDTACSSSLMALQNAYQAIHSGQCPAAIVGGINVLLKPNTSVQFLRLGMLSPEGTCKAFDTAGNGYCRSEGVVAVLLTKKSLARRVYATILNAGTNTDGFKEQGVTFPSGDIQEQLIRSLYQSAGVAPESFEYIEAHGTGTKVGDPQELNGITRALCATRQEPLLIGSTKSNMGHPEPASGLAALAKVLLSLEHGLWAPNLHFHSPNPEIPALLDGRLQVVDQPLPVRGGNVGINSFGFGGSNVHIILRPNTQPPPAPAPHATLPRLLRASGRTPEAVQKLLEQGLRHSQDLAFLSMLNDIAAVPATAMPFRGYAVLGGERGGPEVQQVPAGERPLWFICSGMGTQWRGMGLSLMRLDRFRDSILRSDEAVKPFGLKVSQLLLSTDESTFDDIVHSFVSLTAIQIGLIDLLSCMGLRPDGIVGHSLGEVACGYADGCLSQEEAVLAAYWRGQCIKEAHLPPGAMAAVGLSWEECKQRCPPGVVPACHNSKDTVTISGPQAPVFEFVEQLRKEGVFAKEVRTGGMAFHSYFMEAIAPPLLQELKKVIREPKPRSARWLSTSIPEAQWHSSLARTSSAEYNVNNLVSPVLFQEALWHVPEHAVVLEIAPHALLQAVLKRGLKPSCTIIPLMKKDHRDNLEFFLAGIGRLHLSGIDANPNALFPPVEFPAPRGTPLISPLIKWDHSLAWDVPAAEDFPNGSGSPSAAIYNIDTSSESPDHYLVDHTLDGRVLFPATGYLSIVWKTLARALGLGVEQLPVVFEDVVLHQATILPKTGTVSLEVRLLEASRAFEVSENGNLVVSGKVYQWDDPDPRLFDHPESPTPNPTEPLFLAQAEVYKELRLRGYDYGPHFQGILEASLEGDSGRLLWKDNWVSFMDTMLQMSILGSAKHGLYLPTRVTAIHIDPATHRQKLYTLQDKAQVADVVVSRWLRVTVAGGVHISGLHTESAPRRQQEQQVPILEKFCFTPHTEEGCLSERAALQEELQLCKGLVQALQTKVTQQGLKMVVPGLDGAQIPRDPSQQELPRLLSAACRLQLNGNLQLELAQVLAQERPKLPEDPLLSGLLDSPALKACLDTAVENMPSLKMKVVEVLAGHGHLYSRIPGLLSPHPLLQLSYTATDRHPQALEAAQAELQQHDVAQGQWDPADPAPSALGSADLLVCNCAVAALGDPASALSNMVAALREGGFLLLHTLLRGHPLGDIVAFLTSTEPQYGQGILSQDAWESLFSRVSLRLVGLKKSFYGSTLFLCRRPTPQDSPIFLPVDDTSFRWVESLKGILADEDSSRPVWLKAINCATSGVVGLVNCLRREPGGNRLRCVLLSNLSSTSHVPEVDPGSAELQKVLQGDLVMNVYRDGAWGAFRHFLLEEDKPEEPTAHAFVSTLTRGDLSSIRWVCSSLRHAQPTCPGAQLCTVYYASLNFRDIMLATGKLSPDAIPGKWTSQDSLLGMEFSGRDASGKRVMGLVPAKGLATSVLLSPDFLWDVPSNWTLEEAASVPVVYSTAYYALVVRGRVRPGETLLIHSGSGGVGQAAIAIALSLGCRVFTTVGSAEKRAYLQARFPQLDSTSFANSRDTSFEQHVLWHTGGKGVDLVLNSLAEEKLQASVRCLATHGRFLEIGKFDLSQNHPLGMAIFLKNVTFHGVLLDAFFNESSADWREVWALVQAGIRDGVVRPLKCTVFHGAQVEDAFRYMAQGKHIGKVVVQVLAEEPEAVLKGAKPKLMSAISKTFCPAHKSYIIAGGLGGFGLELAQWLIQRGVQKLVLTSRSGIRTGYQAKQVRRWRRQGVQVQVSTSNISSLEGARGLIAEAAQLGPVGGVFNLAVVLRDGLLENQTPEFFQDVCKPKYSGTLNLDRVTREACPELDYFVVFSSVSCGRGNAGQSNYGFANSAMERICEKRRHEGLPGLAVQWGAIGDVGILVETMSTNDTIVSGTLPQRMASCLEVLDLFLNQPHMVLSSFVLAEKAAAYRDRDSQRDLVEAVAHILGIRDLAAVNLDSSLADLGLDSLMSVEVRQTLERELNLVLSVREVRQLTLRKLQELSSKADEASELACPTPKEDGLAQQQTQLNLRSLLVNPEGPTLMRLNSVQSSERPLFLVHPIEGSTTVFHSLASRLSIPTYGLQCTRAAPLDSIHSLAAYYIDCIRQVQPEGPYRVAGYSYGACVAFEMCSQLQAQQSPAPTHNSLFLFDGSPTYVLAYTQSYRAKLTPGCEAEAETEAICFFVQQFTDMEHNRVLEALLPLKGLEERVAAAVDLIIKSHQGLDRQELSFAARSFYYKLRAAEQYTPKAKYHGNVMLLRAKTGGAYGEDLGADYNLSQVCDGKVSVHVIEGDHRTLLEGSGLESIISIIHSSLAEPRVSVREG

## CCCCCCCCCCC[C@@H](C[C@@H]1OC(=O)[C@H]1CCCCCC)OC(=O)[C@H](CC(C)C)NC=O [Xenical]
lipases
  dietary fat blocked from being absorbed: about 30%

## C=CC(C)(C)c1cc2cc3c(cc2oc1=O)O[C@H](C(C)(C)O)C3 [chalepin]
[1]
  oxidative uncoupling: act as oxidative uncouplers

## Cc1cc(O)c2c(c1)C(=O)c1cc(O)cc(O)c1C2=O [emodin, 3-methyl-1,6,8-trihydroxy-anthraquinone]
Fatty acid synthase
  inhibition effect on fatty acid synthase: inhibition effect on fatty acid synthase, which is dose dependent
3T3-L1
  inhibition of differentiation of 3T3-L1: inhibition of differentiation of 3T3-L1

## CC(C)=CCOc1c2occc2cc2ccc(=O)oc12 [imperatorin]
[1]
  oxidative uncoupling: act as oxidative uncouplers

## CC(C)(O)[C@@H]1Cc2cc3ccc(=O)oc3cc2O1 [marmesin]
[1]
  oxidative uncoupling: act as oxidative uncouplers

## CC1(C)CC[C@]2(C(=O)O)CC[C@]3(C)C(=CC[C@@H]4[C@@]5(C)CC[C@H](O)C(C)(C)[C@@H]5CC[C@]43C)[C@@H]2C1 [oleanic acid]
[2]
  glucose transport at the brush border of the small intestine: inhibiting glucose transport at the brush border of the small intestine
  transfer of glucose from the stomach to the small intestine: suppress the transfer of glucose from the stomach to the small intestine
